# Source: patent US20230181905A1, “Systems, Devices, and Methods for Enhancing the Neuroprotective Effects of Non-Invasive Gamma Stimulation with Pharmacological Agents” (Massachusetts Institute of Technology, priority 2021, published 2023)
# Assays:
# Type in all cases: in vivo, mouse
# [1] = test system: CSF1R resistant progenitor-like MAC2+ microglia; assay: MAC2+ microglia immunohistochemistry; conditions: 5×FAD mice; Plx3397 diet 50 days vs control
# Procedure: To study how CSF1R-sensitive microglia impact neural activity in the context of AD, an amyloidosis mouse model, the 5×FAD mice—which is a most commonly used mouse model for AD, was subject to a diet containing CSF1R inhibitor Plx3397 for 50 days (FIG. 21A). The CSF1R inhibitor Plx3397 (600 ppm) was employed, which was previously shown to effectively reduce microglia in vivo. Control mice were age-matched 5×FAD litters that received a regular diet. Electrophysiological recordings were performed using linear probes. Post-recording, the recording site in the visual cortex was verified by histology (FIG. 21), and microglia reduction was evaluated by assessing IBA1+ cell numbers.
# Microglia: Iba1 immunoreactive cells were considered microglia. Using an LSM 710 or LSM 880 with a 10× (for Iba1+ cell counts) or 40× (for morphological analysis) objective z stacks of the entire slice thickness […] with […] step size were acquired. Imaris was used for 3D rendering of images to quantify the total volume of microglia. MAC2+ cells were counted manually using Image J.
# perineuronal nets (WFA) = assay: WFA staining of perineuronal nets; conditions: 5×FAD mice
# From the text: Perineuronal nets (PNN) of neurons are necessary for neuronal integrity and circuit plasticity. Loss of PNN is shown to occur in AD. […] Therefore, the effect of the treatment on PNN was examined.
# Antibodies: IBA1 (Synaptic Systems, Cat #234 004, dilution-1:500; Wako Chemicals, Cat #019-19741, dilution-1:500), GFAP (Thermo Fisher Scientific, Cat #130300, dilution-1:500), MEF2C (Cell Signaling Technology, Cat #5030T), MAC2 (Cedarlane Labs, Cat #CL8942AP, dilution-1:500), vGAT (Synaptic Systems, Cat #131 013, dilution-1:500), vGLUT (Synaptic Systems, Cat #1135 302, dilution-1:500), NeuN (Synaptic Systems, Cat #266 004, dilution-1:1000), MHC2 (EMD Millipore, Cat #MABF33, dilution-1:500), C1q (Abcam, Cat #ab182451, dilution-1:500), synaptophysin (Sigma, Cat #S5768). The following combination of secondary antibodies were used: (1) Alexa Fluor 488, 594 and 647, (2) Alexa Fluor 555 and 647, (3) Alexa Fluor 594 and 647, or (4) Alexa Fluor 488 and 647. All secondary antibodies were obtained from Invitrogen. Biotinylated Wisteria Floribunda Lectin (Vector Laboratories, Cat #B-1355, dilution-1:500) followed by streptavidin conjugated Alexa Fluor 594 (Thermo Fisher Scientific, Cat #S32356, dilution-1:1000) was used to examine WFA.
# CK-p25 mice = assay: Novel object recognition test in CK-p25 mice
# Procedure: Given the neuroprotective effect of Plx3397+GENUS treatment, whether this treatment also impacted learning and memory was evaluated. Mice were tested in an open field (OF) and assessed for changes in anxiety and activity levels, followed by a novel object recognition (NOR) test of memory. 10-month-1d 5×FAD mice were treated with Plx3397. Following 20 days administration of Plx3397 chow, untreated- and Plx3397 treated 5×FAD mice (which continued PLX administration) were subjected to 30 days of daily GENUS. Mice were tested in OF and NOR during the last week of these treatments. […] Next, CK-p25 mice were treated for 42 days and assessed behavioral performance.
# For OF, mice were introduced into an open field box (dimensions: length=460 mm, width=460 mm and height=400 mm; TSE-Systems) and were tracked using Noldus (Ethovision) for 12 min, with time spent in the center and peripheral area of the arena measured. […] Mouse behavior was monitored for 7 min. Time spent exploring both the familiar and novel objects was recorded using Noldus and computed offline. Percentage of novelty preference index was calculated as follows: time exploring novel object (Nt) divided by total time exploring novel and familiar (Ft) objects and presented in %−{[Nt/Nt+Ft]*100}. […]
smiles,measurement,setting,value
"FC(F)(F)c1ccc(CNc2ccc(Cc3c[nH]c4ncc(Cl)cc34)cn2)cn1 [Plx3397, Pexidartinib]",CSF1R resistant progenitor-like MAC2+ microglia,[1],no difference
same,WFA content within the microglia compared to control mice,perineuronal nets (WFA),higher
same,WFA signals,"perineuronal nets (WFA); hippocampus, chronic Plx3397 vs control",increased
same,PNN coverage,perineuronal nets (WFA); visual cortex,increased
same,WFA overall signal intensity,perineuronal nets (WFA); visual cortex,increased
same,WFA signals,perineuronal nets (WFA); visual cortex,130.4±7.178 % of no treatment control
same,WFA+ PNN signals,"perineuronal nets (WFA); visual cortex, Plx3397 50 days",289400000±9384029 au
same,novel object recognition memory in the NOR test,CK-p25 mice; CK-p25 mice treated for 42 days,significantly improved
same,novel object recognition memory in the NOR test (novelty index),"CK-p25 mice; CK-p25 mice, control 54.82±3.70",70.52±2.89
